Where two headings read alike, the source gives them in different places.
Legend:
[1] = system: Banana, Tomato and slices of avocado; yeast and/or bacteria
Excerpt: Representative samples include fruits (Banana), and vegetables (Tomato) and slices of avocado. Experiments were repeated at least four times and each food category included a minimum of six items in each group. The containers were made of gas impermeable Plexiglas that snugly fitted onto the container rim. Fruits were placed on regular kitchen towels that covered the bottom of the containers. Control and experimental group (Exp) of fruits were placed in separate containers. The amount of H2S—H2 gas within the Exp containers varied from 5-15 ppm during the course of exposure. When the level dropped below 5 ppm, the H2 gas was substituted. Experiment was carried out at room temperature for the durations shown. […] Growth of bacteria and yeast was checked by taking samples of food and streaking them over agar. Samples from each fruit were diluted in phosphate buffered saline, pH 7.4. From each sample, 20 microliters was streaked on agar plates and plates were maintained either at room temperature or at 37° C.

[2] = system: strawberries; micro-organisms
Method: Fruits were treated without or with gas with each gas at 40 ppm. N=12, Differences between control and treated groups (P<0.05-P<0.005).

[3] = system: bacteria and yeast; assay: Agar plates stored with H2S gas 40 ppm (FIG. 11, 104); type: cell-based; details: H2S 40 ppm
Excerpt: Representative samples of foods shown include fruits, and vegetables. […] Control foods were stored in closed containers. The containers were made of aluminum with a plastic lid that snugly fitted onto the container rim. […] The inlet and outlet valves were then closed. Using a H2S gas detector capable of detecting 1 to 500 ppm of H2S, no H2S was detected outside the chamber. […] There is small change in color, consistency, and of the same food group and there is no evidence of growth of yeast in the H2S gas-treated group. Growth of bacteria and yeast was checked by taking samples of food and streaking them over agar. […] Strawberry 80. […] This growth was quite evident on day 5 (arrows, 81). The fruit also lost its consistency and is discolored. […] Banana, 86. Growth of yeast is seen by day 8 in the control group. The fruit also lost its consistency and is discolored. […] A slice of banana 99. […] The fruit also lost its consistency and is discolored. […] Pistachio 101. […] Green bananas 102. Green bananas in each group were used in this experiment. The control bananas ripened, developed a yellow color that still maintained some of their green color on day 8. Tomatoes 103. Green tomatoes in each group were used in this experiment. […] Samples from each fruit were diluted in phosphate buffered saline, pH 7.4. […]

[4] = system: mice; details: cited from earlier work
[5] = 0.01-0.1 mol/liter solutions at 18° C.; cited from earlier work
[6] = system: humans; details: cited from earlier work
[7] = system: Strawberry, Blackberry, Raspberry, Banana, Tomato and Avocado; mold and/or bacteria
Excerpt: Representative samples include but are not limited to (Strawberry, Blackberry, Raspberry, Banana, Tomato and Avocado). Experiments were repeated at least four times and each food category included a minimum of six items in each group. The containers were made of gas impermeable plexi-glass that snugly fitted onto the container rim. Fruits were placed on regular kitchen towels that covered the bottom of the container. Control and experimental group (Exp) of fruits were placed in separate containers. […] When the level dropped below 5 ppm, the H2 gas was substituted. Experiment was carried out at room temperature for the durations shown.

[8] = in water; cited from earlier work
[9] = in water; cited from earlier work; remark: listed apart in the source

Compound: [He] [Helium]
- food spoilage ([1]; closed environment, room temperature): prevents food spoilage
- growth of micro-organisms [2]: retarded but did not prevent growth of micro-organisms
- effect on ripening and oxidation ([2]; relative to Hydrogen): greater than Hydrogen
- prevention of food spoilage ([2]; relative to Hydrogen): comparable with Hydrogen

Compound: S [Hydrogen Sulfide]
- time without growth following initiation of cultures [3]: up to 2 months
- health consequences after the procedure ([4]; 81 ppm H2S, 6 hours): no negative health consequences
- blood pressure ([4]; mice treated with Hydrogen Sulfide (81 ppm)): did not significantly decrease
- side effects ([4]; range of 80 ppm): no side effects
- pKa (giving the hydro-sulfide ion HS^−) [5]: 6.9
- lethal concentration for 50% of humans (LC50) ([6]; 5 minute exposure): 800 ppm
- concentration at which the olfactory nerve is paralyzed ([6]; after a few inhalations): 100-150 ppm
- concentration causing immediate collapse with loss of breathing ([6]; even after a single breath): over 1000 ppm
- borderline concentration for eye irritation ([6]; in vivo): 10-20 ppm
- concentration causing strong stimulation of the central nervous system and rapid breathing, leading to loss of breathing ([6]; in vivo): 530-1000 ppm
- concentration leading to eye damage ([6]; in vivo): 50-100 ppm
- concentration leading to pulmonary edema with the possibility of death ([6]; in vivo): 320-530 ppm
- concentration with an exposure limit of 8 hours per day ([6]; in vivo): < 10 ppm
- recognition threshold, concentration at which 50% of humans can detect the odor ([6]; in vivo): 0.0047 ppm
- threshold level at which the oxidative (detoxifying) enzymes get overwhelmed ([6]; in vivo): 300-350 ppm

Compound: [HH] [Hydrogen]
- food spoilage and growth of mold and/or bacteria ([7]; H2 5-45 ppm, closed container, room temperature): prevents food spoilage and retards but does not inhibit growth of mold and/or bacteria
- day on which growth of mold is evident ([7]; Strawberry, Raspberry, Blackberry, control day 3, less severe than control): 4 days
- discoloration and yeast growth on avocado slice ([7]; day 4): only moderate surface discoloration and no evidence of growth of yeast
- ripening and surface discoloration of un-ripened bananas ([7]; day 4, versus control): less ripening and discoloration
- ripening of un-ripened tomato ([7]; day 4, versus control): less ripening
- food spoilage [1]: prevents food spoilage
- reaction rate constant k, .O^− + H2 [8]: 8e+07 M⁻¹ s⁻¹
- reaction rate constant k, .OH + H2 [9]: 4.2e+07 M⁻¹ s⁻¹

Reference: patent US20140342065A1 (priority 2012, published 2014)
